Key:
Assay type in all cases: in vivo
Design in all cases: key: 0 is no effect; 10 is complete control
[1] = test system: bedstraw (Galium aparine); assay: Test B pre-/postemergence
How it was run: (§1)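 Scored visually 0 (none) to 10 (complete control) against untreated plants after twelve to sixteen greenhouse days. Test chemicals, formulated in surfactant-containing non-phytotoxic solvent, applied to soil after planting and, separately, onto 1- to 4-leaf (2–18 cm) plants.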

[2] = test system: broadleaf signalgrass (Brachiaria decumbens); assay: Test B pre-/postemergence; details: Preemergence
How it was run: as §1

[3] = test system: cocklebur (Xanthium strumarium); assay: Test B pre-/postemergence
How it was run: as §1

corn (Zea mays) = assay: Test B pre-/postemergence
How it was run: as §1

[4] = test system: giant foxtail (Setaria faberii); assay: Test B pre-/postemergence
How it was run: as §1

[5] = test system: momingglory (Ipomoea hederacea); assay: Test B pre-/postemergence
How it was run: as §1

[6] = test system: pigweed (Amaranthus retroflexus); assay: Test B pre-/postemergence
How it was run: as §1

rape (Brassica napus) = assay: Test B pre-/postemergence
How it was run: as §1

[7] = test system: sugar beet (Beta vulgaris); assay: Test B pre-/postemergence
How it was run: as §1

[8] = test system: velvetleaf (Abutilon theophrasti); assay: Test B pre-/postemergence
How it was run: as §1

[9] = test system: wheat (Triticum aestivum); assay: Test B pre-/postemergence
How it was run: as §1

[10] = test system: bamyardgrass (Echinochloa crus-galli); assay: Test B flood test
How it was run: (§2)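 Flood test on plants grown to the 2-leaf stage; treated plants kept in greenhouse twelve to sixteen days, then visually rated against controls on a 0 (no effect) to 10 (complete control) scale.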

[11] = test system: duck salad (Heteranthera limosa); assay: Test B flood test
How it was run: as §2

rice (Oryza sativa) = assay: Test B flood test
How it was run: as §2

[12] = test system: smallflower flatsedge (Cyperus difformis); assay: Test B flood test
How it was run: as §2

[13] = Rate 62 g/ha, Postemergence (flood test)
[14] = Rate 125 g/ha, Postemergence, flood test
[15] = Rate 250 g/ha, Postemergence (flood test species)
[16] = Rate 500 g/ha, Postemergence (flood test species)

Cc1cnc(-c2ccc(Cl)cc2)nc1Cn1ccc(C(F)(F)F)n1 [Compound 6]
Plant response rating, Bedstraw ([1]; Rate 62 g/ha, Postemergence): 5 | Bedstraw plant response rating ([1]; Rate 62 g/ha, Preemergence): 0 | Plant response rating, Bedstraw ([1]; Rate 125 g/ha, Postemergence): 7 | Bedstraw plant response rating ([1]; Rate 125 g/ha, Preemergence): 0 | Plant response rating, Bedstraw ([1]; Rate 250 g/ha, Postemergence): 7 | Plant response rating, Bedstraw ([1]; Rate 250 g/ha, Preemergence): 0 | Plant response rating, Bedstraw ([1]; Rate 500 g/ha, Postemergence): 8 | Plant response rating, Bedstraw ([1]; Rate 500 g/ha, Preemergence): 5 | B. signalgrass plant response rating ([2]; Rate 62 g/ha): 1 | B. signalgrass plant response rating ([2]; Rate 125 g/ha): 4 | Plant response rating, B. signalgrass ([2]; Rate 250 g/ha): 9 | Plant response rating, B. signalgrass ([2]; Rate 500 g/ha): 9 | Plant response rating, Cocklebur ([3]; Rate 62 g/ha, Postemergence): 5 | Cocklebur plant response rating ([3]; Rate 62 g/ha, Preemergence): 0 | Plant response rating, Cocklebur ([3]; Rate 125 g/ha, Postemergence): 6 | Cocklebur plant response rating ([3]; Rate 125 g/ha, Preemergence): 0 | Plant response rating, Cocklebur ([3]; Rate 250 g/ha, Postemergence): 7 | Plant response rating, Cocklebur ([3]; Rate 250 g/ha, Preemergence): 0 | Plant response rating, Cocklebur ([3]; Rate 500 g/ha, Postemergence): 7 | Plant response rating, Cocklebur ([3]; Rate 500 g/ha, Preemergence): 0 | Plant response rating, Corn (corn (Zea mays); Rate 62 g/ha, Postemergence): 3 | Corn plant response rating (corn (Zea mays); Rate 62 g/ha, Preemergence): 0 | Plant response rating, Corn (corn (Zea mays); Rate 125 g/ha, Postemergence): 3 | Corn plant response rating (corn (Zea mays); Rate 125 g/ha, Preemergence): 0 | Plant response rating, Corn (corn (Zea mays); Rate 250 g/ha, Postemergence): 3 | Plant response rating, Corn (corn (Zea mays); Rate 250 g/ha, Preemergence): 0 | Plant response rating, Corn (corn (Zea mays); Rate 500 g/ha, Postemergence): 3 | Plant response rating, Corn (corn (Zea mays); Rate 500 g/ha, Preemergence): 0 | Giant foxtail plant response rating ([4]; Rate 62 g/ha, Preemergence): 2 | Plant response rating, Giant foxtail ([4]; Rate 125 g/ha, Postemergence): 4 | Giant foxtail plant response rating ([4]; Rate 125 g/ha, Preemergence): 6 | Plant response rating, Giant foxtail ([4]; Rate 250 g/ha, Postemergence): 5 | Plant response rating, Giant foxtail ([4]; Rate 250 g/ha, Preemergence): 9 | Plant response rating, Giant foxtail ([4]; Rate 500 g/ha, Postemergence): 6 | Plant response rating, Giant foxtail ([4]; Rate 500 g/ha, Preemergence): 10 | Plant response rating, Morningglory ([5]; Rate 62 g/ha, Postemergence): 3 | Morningglory plant response rating ([5]; Rate 62 g/ha, Preemergence): 1 | Plant response rating, Morningglory ([5]; Rate 125 g/ha, Postemergence): 8 | Morningglory plant response rating ([5]; Rate 125 g/ha, Preemergence): 1 | Plant response rating, Morningglory ([5]; Rate 250 g/ha, Postemergence): 8 | Plant response rating, Morningglory ([5]; Rate 250 g/ha, Preemergence): 2 | Plant response rating, Morningglory ([5]; Rate 500 g/ha, Postemergence): 8 | Plant response rating, Morningglory ([5]; Rate 500 g/ha, Preemergence): 2 | Plant response rating, Redroot pigweed ([6]; Rate 62 g/ha, Postemergence): 5 | Redroot pigweed plant response rating ([6]; Rate 62 g/ha, Preemergence): 0 | Plant response rating, Redroot pigweed ([6]; Rate 125 g/ha, Postemergence): 7 | Redroot pigweed plant response rating ([6]; Rate 125 g/ha, Preemergence): 3 | Plant response rating, Redroot pigweed ([6]; Rate 250 g/ha, Postemergence): 9 | Plant response rating, Redroot pigweed ([6]; Rate 250 g/ha, Preemergence): 6 | Plant response rating, Redroot pigweed ([6]; Rate 500 g/ha, Postemergence): 9 | Plant response rating, Redroot pigweed ([6]; Rate 500 g/ha, Preemergence): 6 | Plant response rating, Rape (rape (Brassica napus); Rate 62 g/ha, Postemergence): 8 | Rape plant response rating (rape (Brassica napus); Rate 62 g/ha, Preemergence): 0 | Plant response rating, Rape (rape (Brassica napus); Rate 125 g/ha, Postemergence): 8 | Rape plant response rating (rape (Brassica napus); Rate 125 g/ha, Preemergence): 2 | Plant response rating, Rape (rape (Brassica napus); Rate 250 g/ha, Postemergence): 8 | Plant response rating, Rape (rape (Brassica napus); Rate 250 g/ha, Preemergence): 4 | Plant response rating, Rape (rape (Brassica napus); Rate 500 g/ha, Postemergence): 8 | Plant response rating, Rape (rape (Brassica napus); Rate 500 g/ha, Preemergence): 7 | Plant response rating, Sugarbeets ([7]; Rate 62 g/ha, Postemergence): 7 | Sugarbeets plant response rating ([7]; Rate 62 g/ha, Preemergence): 0 | Plant response rating, Sugarbeets ([7]; Rate 125 g/ha, Postemergence): 8 | Sugarbeets plant response rating ([7]; Rate 125 g/ha, Preemergence): 3 | Plant response rating, Sugarbeets ([7]; Rate 250 g/ha, Postemergence): 8 | Plant response rating, Sugarbeets ([7]; Rate 250 g/ha, Preemergence): 9 | Plant response rating, Sugarbeets ([7]; Rate 500 g/ha, Postemergence): 9 | Plant response rating, Sugarbeets ([7]; Rate 500 g/ha, Preemergence): 10 | Plant response rating, Velvetleaf ([8]; Rate 62 g/ha, Postemergence): 7 | Velvetleaf plant response rating ([8]; Rate 62 g/ha, Preemergence): 1 | Plant response rating, Velvetleaf ([8]; Rate 125 g/ha, Postemergence): 7 | Velvetleaf plant response rating ([8]; Rate 125 g/ha, Preemergence): 2 | Plant response rating, Velvetleaf ([8]; Rate 250 g/ha, Postemergence): 8 | Plant response rating, Velvetleaf ([8]; Rate 250 g/ha, Preemergence): 2 | Plant response rating, Velvetleaf ([8]; Rate 500 g/ha, Postemergence): 8 | Plant response rating, Velvetleaf ([8]; Rate 500 g/ha, Preemergence): 3 | Plant response rating, Wheat ([9]; Rate 62 g/ha, Postemergence): 1 | Wheat plant response rating ([9]; Rate 62 g/ha, Preemergence): 0 | Plant response rating, Wheat ([9]; Rate 125 g/ha, Postemergence): 2 | Wheat plant response rating ([9]; Rate 125 g/ha, Preemergence): 0 | Plant response rating, Wheat ([9]; Rate 250 g/ha, Postemergence): 2 | Plant response rating, Wheat ([9]; Rate 250 g/ha, Preemergence): 0 | Plant response rating, Wheat ([9]; Rate 500 g/ha, Postemergence): 3 | Plant response rating, Wheat ([9]; Rate 500 g/ha, Preemergence): 0 | Plant response rating, Barnyardgrass [10, 13]: 0 | Plant response rating, Barnyardgrass [10, 14]: 1 | Plant response rating, Barnyardgrass [10, 15]: 2 | Plant response rating, Barnyardgrass [10, 16]: 3 | Plant response rating, Ducksalad [11, 13]: 0 | Plant response rating, Ducksalad [11, 14]: 0 | Plant response rating, Ducksalad [11, 15]: 0 | Plant response rating, Ducksalad [11, 16]: 6 | Plant response rating, Rice (rice (Oryza sativa); [13]): 1 | Plant response rating, Rice (rice (Oryza sativa); [14]): 2 | Plant response rating, Rice (rice (Oryza sativa); [15]): 2 | Plant response rating, Rice (rice (Oryza sativa); [16]): 3 | Plant response rating, S. Flatsedge [12, 13]: 3 | Plant response rating, S. Flatsedge [12, 14]: 5 | Plant response rating, S. Flatsedge [12, 15]: 7 | Plant response rating, S. Flatsedge [12, 16]: 7
